Reference: PubChem BioAssay AID2060891 (Molecular Pharmacology Branch, DTP, NCI, 2025)

System: K98450-129-R-PDC complex spheroid growth, percent test/control
Assay: Anticancer human tumor K98450-129-R-PDC patient-derived colon adenocarcinoma cell line growth inhibition [RAS]
Settings: for IC50: curve of first compound; for viability, T/C: stronger effect = lower value
In short: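 Agents were tested in combination matrices in half-log decrements from a top concentration at or near clinical Cmax (10 microM if undetermined). Targets were multi-cell spheroids of tumour lines plus HUVEC and MSC stromal cells.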

[1] = second compound 0.000949 µM, first compound 0.0316 µM
[2] = second compound 0.000949 µM, first compound 0.1 µM
[3] = second compound 0.003 µM, first compound 0.0316 µM
[4] = second compound 0.003 µM, first compound 0.1 µM
[5] = second compound 0.00949 µM, first compound 0.0316 µM
[6] = second compound 0.00949 µM, first compound 0.1 µM
[7] = second compound 0.03 µM, first compound 0.0316 µM
[8] = second compound 0.03 µM, first compound 0.1 µM
[9] = second compound 0.0949 µM, first compound 0.0316 µM
[10] = second compound 0.0949 µM, first compound 0.1 µM
[11] = second compound 0.3 µM, first compound 0.0316 µM
[12] = second compound 0.3 µM, first compound 0.1 µM
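Note: spheroids exposed to agents for seven days before the viability readout.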
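Throughout, for viability, T/C: luminescence used as a proxy for viable cell amount.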

CC(C)NCC(C(=O)N1CCN(c2ncnc3c2C(C)CC3O)CC1)c1ccc(Cl)cc1 (centres undefined) + CCn1c(-c2cc(N3CCN(C)CC3)cnc2C(C)OC)c2c3cc(ccc31)-c1csc(n1)CC(NC(=O)C1CC1C)C(=O)N1CCCC(N1)C(=O)OCC(C)(C)C2 was tested, and the IC50 (second compound 0.000949 µM) was greater than 10000 nM, the IC50 (second compound 0.003 µM) was greater than 10000 nM and the IC50 (second compound 0.00949 µM) was greater than 10000 nM. For the same molecule, the IC50 (second compound 0.03 µM) was less than 31.6 nM, the IC50 (second compound 0.0949 µM) was less than 31.6 nM and the IC50 (second compound 0.3 µM) was less than 31.6 nM. The viability, T/C [1] was 104%, the viability, T/C [2] was 93.3% and the viability, T/C (second compound 0.000949 µM, first compound 0.316 µM) was 89.9%. The viability, T/C (second compound 0.000949 µM, first compound 1 µM) was 73.3%, the viability, T/C (second compound 0.000949 µM, first compound 3.16 µM) was 100% and the viability, T/C (second compound 0.000949 µM, first compound 10 µM) was 89.9%. The viability, T/C [3] was 90.7%, the viability, T/C [4] was 80.8% and the viability, T/C (second compound 0.003 µM, first compound 0.316 µM) was 87.1%. For the same molecule, the viability, T/C (second compound 0.003 µM, first compound 1 µM) was 76.5%, the viability, T/C (second compound 0.003 µM, first compound 3.16 µM) was 75.3% and the viability, T/C (second compound 0.003 µM, first compound 10 µM) was 79.7%. It also gave a viability, T/C [5] of 66.7%, a viability, T/C [6] of 67% and a viability, T/C (second compound 0.00949 µM, first compound 0.316 µM) of 70%. The viability, T/C (second compound 0.00949 µM, first compound 1 µM) was 74.5%, the viability, T/C (second compound 0.00949 µM, first compound 3.16 µM) was 77.4% and the viability, T/C (second compound 0.00949 µM, first compound 10 µM) was 67.5%. For the same molecule, the viability, T/C [7] was 48.7%, the viability, T/C [8] was 44.8% and the viability, T/C (second compound 0.03 µM, first compound 0.316 µM) was 52.7%. It also gave a viability, T/C (second compound 0.03 µM, first compound 1 µM) of 47.7%, a viability, T/C (second compound 0.03 µM, first compound 3.16 µM) of 54.7% and a viability, T/C (second compound 0.03 µM, first compound 10 µM) of 46.9%. For the same molecule, the viability, T/C [9] was 19%, the viability, T/C [10] was 24.3% and the viability, T/C (second compound 0.0949 µM, first compound 0.316 µM) was 17.6%. For the same molecule, the viability, T/C (second compound 0.0949 µM, first compound 1 µM) was 17.8%, the viability, T/C (second compound 0.0949 µM, first compound 3.16 µM) was 16.2% and the viability, T/C (second compound 0.0949 µM, first compound 10 µM) was 11.2%. For the same molecule, the viability, T/C [11] was 11.1%, the viability, T/C [12] was 12.6% and the viability, T/C (second compound 0.3 µM, first compound 0.316 µM) was 12.5%. The viability, T/C (second compound 0.3 µM, first compound 1 µM) was 10.1%, the viability, T/C (second compound 0.3 µM, first compound 3.16 µM) was 9.61% and the viability, T/C (second compound 0.3 µM, first compound 10 µM) was 7.13%.

CC(C)n1nc(-c2ccc3oc(N)nc3c2)c2c(N)ncnc21 + CCn1c(-c2cc(N3CCN(C)CC3)cnc2C(C)OC)c2c3cc(ccc31)-c1csc(n1)CC(NC(=O)C1CC1C)C(=O)N1CCCC(N1)C(=O)OCC(C)(C)C2 showed an IC50 (second compound 0.000949 µM) greater than 100 nM, an IC50 (second compound 0.003 µM) greater than 100 nM and an IC50 (second compound 0.00949 µM) greater than 100 nM. It also gave an IC50 (second compound 0.03 µM) of 10.1 nM, an IC50 (second compound 0.0949 µM) of less than 0.316 nM and an IC50 (second compound 0.3 µM) of less than 0.316 nM. It also gave a viability, T/C (second compound 0.000949 µM, first compound 0.000316 µM) of 98.9%, a viability, T/C (second compound 0.000949 µM, first compound 0.001 µM) of 80.9% and a viability, T/C (second compound 0.000949 µM, first compound 0.00316 µM) of 91.9%. It also gave a viability, T/C (second compound 0.000949 µM, first compound 0.01 µM) of 70.7%, a viability, T/C [1] of 82.7% and a viability, T/C [2] of 70.7%. The viability, T/C (second compound 0.003 µM, first compound 0.000316 µM) was 88.4%, the viability, T/C (second compound 0.003 µM, first compound 0.001 µM) was 70.8% and the viability, T/C (second compound 0.003 µM, first compound 0.00316 µM) was 76.1%. The viability, T/C (second compound 0.003 µM, first compound 0.01 µM) was 65.4%, the viability, T/C [3] was 71.2% and the viability, T/C [4] was 64%. The viability, T/C (second compound 0.00949 µM, first compound 0.000316 µM) was 80.7%, the viability, T/C (second compound 0.00949 µM, first compound 0.001 µM) was 60.1% and the viability, T/C (second compound 0.00949 µM, first compound 0.00316 µM) was 63.9%. It also gave a viability, T/C (second compound 0.00949 µM, first compound 0.01 µM) of 57.4%, a viability, T/C [5] of 60.2% and a viability, T/C [6] of 48.1%. It also gave a viability, T/C (second compound 0.03 µM, first compound 0.000316 µM) of 44.8%, a viability, T/C (second compound 0.03 µM, first compound 0.001 µM) of 57.9% and a viability, T/C (second compound 0.03 µM, first compound 0.00316 µM) of 46.3%. The viability, T/C (second compound 0.03 µM, first compound 0.01 µM) was 51.4%, the viability, T/C [7] was 36.9% and the viability, T/C [8] was 36.1%. It also gave a viability, T/C (second compound 0.0949 µM, first compound 0.000316 µM) of 19.6%, a viability, T/C (second compound 0.0949 µM, first compound 0.001 µM) of 20.5% and a viability, T/C (second compound 0.0949 µM, first compound 0.00316 µM) of 17.9%. For the same molecule, the viability, T/C (second compound 0.0949 µM, first compound 0.01 µM) was 15.8%, the viability, T/C [9] was 14.6% and the viability, T/C [10] was 11.1%. The viability, T/C (second compound 0.3 µM, first compound 0.000316 µM) was 9.98%, the viability, T/C (second compound 0.3 µM, first compound 0.001 µM) was 11% and the viability, T/C (second compound 0.3 µM, first compound 0.00316 µM) was 10.3%. It also gave a viability, T/C (second compound 0.3 µM, first compound 0.01 µM) of 8.15%, a viability, T/C [11] of 7.88% and a viability, T/C [12] of 7.36%.
